Experimental data: publication PMC7747594, “Protease-activated receptor-2 ligands reveal orthosteric and allosteric mechanisms of receptor inhibition” (Communications Biology, 2020)
Where “and” joins values, the source holds several entries; their conditions need not be identical. Equal entries are not always repeated. Entries after “also recorded” stand apart in the source; their conditions may differ.

What was measured:
Type in all cases: cell-based
[1] = target: T1, hPAR2 (Homo sapiens, UniProt P55085); assay: pERK1/2 HTRF assay, inhibition of SLIGRL-NH2 in U2OS-hPAR2 cells
T1 sequence (P55085 26-397): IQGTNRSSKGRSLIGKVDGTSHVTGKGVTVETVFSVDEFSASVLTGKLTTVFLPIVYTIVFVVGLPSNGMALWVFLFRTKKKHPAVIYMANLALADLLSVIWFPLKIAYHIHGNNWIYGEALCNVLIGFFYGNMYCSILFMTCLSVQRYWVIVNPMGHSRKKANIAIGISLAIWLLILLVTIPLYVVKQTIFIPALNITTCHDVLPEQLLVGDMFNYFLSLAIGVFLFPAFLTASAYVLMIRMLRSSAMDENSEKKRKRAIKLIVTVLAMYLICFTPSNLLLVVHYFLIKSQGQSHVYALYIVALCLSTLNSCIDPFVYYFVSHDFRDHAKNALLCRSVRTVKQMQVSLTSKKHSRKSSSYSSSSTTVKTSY

[2] = target: T1, hPAR2; assay: Ca^2+ flux assay (FLIPR), inhibition of SLIGRL-NH2 activation in 1321N1-hPAR2 cells
[3] = target: T1, hPAR2; assay: Ca^2+ flux assay, agonist mode, 1321N1-hPAR2 cells; conditions: for Ca^2+ mobilisation tested as agonist, Fig 1c source data: log[compound], individual data points
In short: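 Agonism (1321N1-hPAR2): Fluo-8 loading 30 min at 37 °C, compounds in HBSS/20 mM HEPES/0.1% BSA/0.5% DMSO, FLIPR peak-minus-baseline Ca^2+; trypsin runs with 1 µM vorapaxar. CHO-hPAR2 antagonism: Fluo-3 loading, 60 min antagonist preincubation at 37 °C, then 30 nM trypsin (EC80). 4-parameter logistic fits; Gaddum/Schild global fit and allosteric relative-activity analysis.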

[4] = target: T1, hPAR2; assay: β-arrestin-2 recruitment assay, inhibition of SLIGRL-NH2 in U2OS-hPAR2 cells
In short: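 DiscoverX enzyme-complementation assay in U2OS-hPAR2 cells: antagonist (30 µM–1 nM) preincubated 30 min, then SLIGRL-NH2 10 µM (EC80) for 90 min at 37 °C.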

[5] = target: T1, hPAR2; assay: Ca^2+ flux assay, inhibition of trypsin activation in 1321N1-hPAR2 cells (with 1 µM Vorapaxar)

CCCc1cc(F)ccc1C(O)c1ncc[nH]1 (stereo not shown) [AZ8838]
IC50 [1]: 2000 nM
remaining activity at 3.33 µM ([1]; read-out: SLIGRL-NH2 phosphorylation of ERK1/2, antagonist response, Fig 1e source data, log[compound], M -5.47756, individual data points): 40.4%
IC50 [2]: 2000 nM
remaining activity at 1.318 µM ([2]; read-out: SLIGRL-NH2 Ca^2+ mobilisation, antagonist response, Fig 1c source data, log[compound], M -5.88008, individual data points): 77.3%
remaining activity at 0.4168 µM ([2]; read-out: SLIGRL-NH2 Ca^2+ mobilisation, antagonist response, Fig 1c source data, log[compound], M -6.38007, individual data points): 83%
remaining activity at 0.1318 µM ([2]; read-out: SLIGRL-NH2 Ca^2+ mobilisation, antagonist response, Fig 1c source data, log[compound], M -6.88008, individual data points): 101%
remaining activity at 0.04169 µM ([2]; read-out: SLIGRL-NH2 Ca^2+ mobilisation, antagonist response, Fig 1c source data, log[compound], M -7.37997, individual data points): 90.3%
remaining activity at 0.01318 µM ([2]; read-out: SLIGRL-NH2 Ca^2+ mobilisation, antagonist response, Fig 1c source data, log[compound], M -7.88008, individual data points): 91.2%
remaining activity at 0.00417 µM ([2]; read-out: SLIGRL-NH2 Ca^2+ mobilisation, antagonist response, Fig 1c source data, log[compound], M -8.37986, individual data points): 97.2%
remaining activity at 0.001319 µM ([2]; read-out: SLIGRL-NH2 Ca^2+ mobilisation, antagonist response, Fig 1c source data, log[compound], M -8.87976, individual data points): 102%
Ca^2+ mobilisation tested as agonist, Fig 1c source data ([3]; M -4.38018): 2.862 and -0.09582 and -3.103 and -1.512 and -1.8855
Ca^2+ mobilisation tested as agonist, Fig 1c source data ([3]; M -4.88008): -0.3654 and 0.4152 and -1.57 and -6.425 and -2.983
Ca^2+ mobilisation tested as agonist, Fig 1c source data ([3]; M -5.38018): 1.583 and 0.2874 and -4.491 and -0.4535 and -1.063
Ca^2+ mobilisation tested as agonist, Fig 1c source data ([3]; M -5.88008): 3.532 and 5.014 and 4.491 and 1.663 and -0.1714
Ca^2+ mobilisation tested as agonist, Fig 1c source data ([3]; M -6.38007): 1.035 and 1.437 and 3.98 and 0.4535 and 1.817
Ca^2+ mobilisation tested as agonist, Fig 1c source data ([3]; M -6.88008): 1.705 and 1.246 and -5.002 and 2.343 and 3.3939
Ca^2+ mobilisation tested as agonist, Fig 1c source data ([3]; M -7.37997): 2.862 and -1.309 and -0.8397 and 2.948 and 1.406
Ca^2+ mobilisation tested as agonist, Fig 1c source data ([3]; M -7.88008): 2.375 and -2.268 and 1.1318 and 4.308 and 1.268
Ca^2+ mobilisation tested as agonist, Fig 1c source data ([3]; M -8.37986): -1.218 and 0.543 and 2.665 and 1.436 and 3.188
Ca^2+ mobilisation tested as agonist, Fig 1c source data ([3]; M -8.87976): 4.6285 and 0.6707 and 4.491 and -8.012 and -2.845
agonist activity (tested as agonists) ([3]; Ca^2+ assay and other signalling assays): no effect; also recorded: no agonist activity
IC50 [4]: 794 nM
IC50 [5]: 3980 nM
shape of inhibition of trypsin-induced Ca^2+ mobilisation ([5]; 1321N1-hPAR2 cells, 1 µM Vorapaxar): sigmoidal and monophasic
remaining activity at 1.318 µM ([5]; read-out: trypsin Ca^2+ mobilisation, antagonist response, Fig 1g source data, log[compound], M -5.88008, individual data points): 86.9%
remaining activity at 0.1318 µM ([5]; read-out: trypsin Ca^2+ mobilisation, antagonist response, Fig 1g source data, log[compound], M -6.88008, individual data points): 93.7%
remaining activity at 0.04169 µM ([5]; read-out: trypsin Ca^2+ mobilisation, antagonist response, Fig 1g source data, log[compound], M -7.37997, individual data points): 93.1%
remaining activity at 0.01318 µM ([5]; read-out: trypsin Ca^2+ mobilisation, antagonist response, Fig 1g source data, log[compound], M -7.88008, individual data points): 97.5%
